Experimental data as given in PubChem BioAssay (NCI).
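The concentration for 50% growth inhibition is given as GI50. TGI: concentration producing complete growth inhibition.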

Columns and labels:
Assay in all cases: NCI anticancer screen, dose series, 384-well format
[1] = test system: TK-10 renal
[2] = test system: OVCAR-5 ovarian
[3] = test system: HL-60(TB) leukemia
[4] = test system: NCI/ADR-RES ovarian
[5] = test system: T-47D breast
[6] = test system: DU-145 prostate
[7] = test system: MDA-MB-231 breast
[8] = test system: MOLT-4 leukemia
[9] = test system: SK-MEL-2 melanoma
[10] = test system: HCT-15 colon
[11] = test system: SN12C renal
[12] = test system: K-562 leukemia
[13] = test system: OVCAR-8 ovarian

Question: With O=C(c1ccccc1O)c1[nH]c(Cl)c(Cl)c1-n1c(C(=O)c2ccccc2O)cc(Cl)c1Cl as the compound, how does the GI50 [1] read?
Answer: 0.386 µM

Question: And the TGI [1]?
Answer: 4.5 µM

Question: What about the GI50 [2] of the same compound?
Answer: 1.44 µM

Question: And the TGI [2]?
Answer: 4.71 µM

Question: What about the GI50 [3] of the same compound?
Answer: 0.257 µM

Question: What about the TGI [3] of the same compound?
Answer: 0.572 µM

Question: What about the GI50 [4] of the same compound?
Answer: 0.384 µM

Question: What about the TGI [4] of the same compound?
Answer: 1.27 µM

Question: What about the GI50 [5] of the same compound?
Answer: 0.218 µM

Question: What about the TGI [5] of the same compound?
Answer: 0.883 µM

Question: And the GI50 [6]?
Answer: 0.681 µM

Question: What about the TGI [6] of the same compound?
Answer: 8.4 µM

Question: And the GI50 [7]?
Answer: 0.424 µM

Question: What about the TGI [7] of the same compound?
Answer: 1.45 µM

Question: What about the GI50 [8] of the same compound?
Answer: 0.301 µM

Question: What about the TGI [8] of the same compound?
Answer: 0.768 µM

Question: What about the GI50 [9] of the same compound?
Answer: 0.333 µM

Question: What about the TGI [9] of the same compound?
Answer: 0.922 µM

Question: What about the GI50 [10] of the same compound?
Answer: 0.277 µM

Question: And the TGI [10]?
Answer: 1.04 µM

Question: What about the GI50 [11] of the same compound?
Answer: 0.209 µM

Question: What about the TGI [11] of the same compound?
Answer: 0.746 µM

Question: What about the GI50 [12] of the same compound?
Answer: 0.238 µM

Question: And the TGI [12]?
Answer: 3.07 µM

Question: What about the GI50 [13] of the same compound?
Answer: 0.276 µM

Question: And the TGI [13]?
Answer: 0.959 µM
